# From ChEMBL document CHEMBL1124269, “1,3-Diamino-6,7-dimethoxyisoquinoline derivatives as potential alpha 1-adrenoceptor antagonists” (J Med Chem, 1988)
# What was measured:
# [1] = Ionization constant of the compound
# [2] = biological target: T1, Adrenergic receptor alpha-2 (Rattus norvegicus, UniProt P22086+P19328+P22909); assay: Binding affinity to alpha-2 adrenergic receptor by displacement of [3H]clonidine; format: protein assay
# T1 sequence (P22086 whole entry): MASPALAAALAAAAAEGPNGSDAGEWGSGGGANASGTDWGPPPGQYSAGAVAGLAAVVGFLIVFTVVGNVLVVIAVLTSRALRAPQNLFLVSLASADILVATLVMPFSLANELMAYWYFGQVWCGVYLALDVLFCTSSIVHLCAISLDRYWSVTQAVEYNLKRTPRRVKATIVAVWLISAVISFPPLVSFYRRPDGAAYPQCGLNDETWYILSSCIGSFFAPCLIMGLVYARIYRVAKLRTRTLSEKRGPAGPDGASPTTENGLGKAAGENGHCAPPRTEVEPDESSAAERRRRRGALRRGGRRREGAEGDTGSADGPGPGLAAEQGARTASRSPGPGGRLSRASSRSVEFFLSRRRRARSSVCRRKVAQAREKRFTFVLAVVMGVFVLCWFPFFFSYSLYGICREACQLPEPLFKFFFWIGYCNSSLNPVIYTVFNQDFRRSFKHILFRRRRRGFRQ
# T1 sequence (P19328 whole entry): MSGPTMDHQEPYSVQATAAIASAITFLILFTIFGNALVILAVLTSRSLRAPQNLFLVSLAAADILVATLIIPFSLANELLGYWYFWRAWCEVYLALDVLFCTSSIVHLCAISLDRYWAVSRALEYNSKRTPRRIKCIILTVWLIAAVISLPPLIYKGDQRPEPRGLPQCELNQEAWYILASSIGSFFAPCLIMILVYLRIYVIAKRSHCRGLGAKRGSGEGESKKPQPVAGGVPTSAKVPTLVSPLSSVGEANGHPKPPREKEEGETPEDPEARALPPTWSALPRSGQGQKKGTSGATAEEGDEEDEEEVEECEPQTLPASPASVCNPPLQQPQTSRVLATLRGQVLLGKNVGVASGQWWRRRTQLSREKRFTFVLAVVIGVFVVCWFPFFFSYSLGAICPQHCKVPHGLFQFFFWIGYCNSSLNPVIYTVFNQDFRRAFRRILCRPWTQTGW
# T1 sequence (P22909 whole entry): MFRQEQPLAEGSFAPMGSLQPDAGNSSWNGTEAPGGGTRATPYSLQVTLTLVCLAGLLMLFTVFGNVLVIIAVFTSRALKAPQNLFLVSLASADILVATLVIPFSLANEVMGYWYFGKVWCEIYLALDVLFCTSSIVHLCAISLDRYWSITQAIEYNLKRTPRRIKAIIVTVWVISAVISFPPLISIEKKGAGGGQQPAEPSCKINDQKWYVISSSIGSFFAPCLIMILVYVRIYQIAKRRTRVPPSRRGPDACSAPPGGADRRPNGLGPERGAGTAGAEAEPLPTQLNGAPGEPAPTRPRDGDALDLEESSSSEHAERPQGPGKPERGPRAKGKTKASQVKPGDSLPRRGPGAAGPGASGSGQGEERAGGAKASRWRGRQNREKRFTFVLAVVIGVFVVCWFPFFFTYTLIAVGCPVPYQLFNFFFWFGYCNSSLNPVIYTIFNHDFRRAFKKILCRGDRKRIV
# [3] = biological target: T2, Adrenergic receptor alpha-1 (Rattus norvegicus, UniProt P15823+P23944+P43140); assay: Binding affinity to Alpha-1 adrenergic receptor by displacement of [3H]prazosin; format: protein assay
# T2 sequence (P15823 whole entry): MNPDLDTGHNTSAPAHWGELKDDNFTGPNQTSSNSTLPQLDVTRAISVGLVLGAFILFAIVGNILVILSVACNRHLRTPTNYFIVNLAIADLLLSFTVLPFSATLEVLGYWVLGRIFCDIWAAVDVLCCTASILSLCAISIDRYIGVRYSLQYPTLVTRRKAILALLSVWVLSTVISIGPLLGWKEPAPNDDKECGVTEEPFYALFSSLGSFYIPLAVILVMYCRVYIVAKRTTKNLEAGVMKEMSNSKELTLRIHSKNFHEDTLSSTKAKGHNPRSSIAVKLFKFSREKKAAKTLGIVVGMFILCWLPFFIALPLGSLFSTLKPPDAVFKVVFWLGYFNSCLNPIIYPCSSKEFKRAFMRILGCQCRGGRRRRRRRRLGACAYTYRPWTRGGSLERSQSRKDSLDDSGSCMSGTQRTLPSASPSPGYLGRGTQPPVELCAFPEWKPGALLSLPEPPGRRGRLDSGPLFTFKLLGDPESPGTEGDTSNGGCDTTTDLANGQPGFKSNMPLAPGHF
# T2 sequence (P23944 whole entry): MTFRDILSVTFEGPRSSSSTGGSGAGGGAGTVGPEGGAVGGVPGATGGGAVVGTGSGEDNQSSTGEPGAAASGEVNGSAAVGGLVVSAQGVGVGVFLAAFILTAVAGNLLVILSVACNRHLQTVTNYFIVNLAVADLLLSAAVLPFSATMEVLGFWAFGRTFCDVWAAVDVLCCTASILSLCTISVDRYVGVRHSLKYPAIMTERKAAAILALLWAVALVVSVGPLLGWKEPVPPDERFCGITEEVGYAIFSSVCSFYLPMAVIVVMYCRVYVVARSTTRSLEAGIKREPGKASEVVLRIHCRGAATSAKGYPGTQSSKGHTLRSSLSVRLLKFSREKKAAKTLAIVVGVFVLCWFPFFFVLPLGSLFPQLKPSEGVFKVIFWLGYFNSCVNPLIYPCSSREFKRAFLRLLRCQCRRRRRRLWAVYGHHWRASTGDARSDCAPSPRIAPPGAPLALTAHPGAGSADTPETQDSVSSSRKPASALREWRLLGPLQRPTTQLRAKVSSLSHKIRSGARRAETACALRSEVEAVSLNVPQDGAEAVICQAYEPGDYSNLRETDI
# T2 sequence (P43140 whole entry): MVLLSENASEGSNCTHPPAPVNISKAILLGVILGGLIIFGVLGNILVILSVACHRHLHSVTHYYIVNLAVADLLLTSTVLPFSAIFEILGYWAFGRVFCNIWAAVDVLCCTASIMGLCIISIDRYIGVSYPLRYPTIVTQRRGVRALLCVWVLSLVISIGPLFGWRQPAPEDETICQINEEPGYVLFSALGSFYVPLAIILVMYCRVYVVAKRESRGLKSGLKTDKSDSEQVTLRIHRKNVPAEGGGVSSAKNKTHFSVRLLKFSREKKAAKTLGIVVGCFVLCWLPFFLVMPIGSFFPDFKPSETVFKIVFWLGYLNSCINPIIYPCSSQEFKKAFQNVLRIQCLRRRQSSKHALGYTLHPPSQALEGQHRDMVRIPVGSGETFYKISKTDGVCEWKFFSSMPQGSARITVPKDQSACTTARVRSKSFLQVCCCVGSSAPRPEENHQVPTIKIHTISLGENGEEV
# Rattus norvegicus [4] = assay: Percent reduction of SHR (Spontaneous Hypertensive Rat) blood pressure at 1 hr at a dose 3 mg/kg peroral administration; details: route oral
# Rattus norvegicus [5] = assay: Percent reduction of SHR (Spontaneous Hypertensive Rat) blood pressure at 4.5 hr at a dose 3 mg/kg peroral administration; details: route oral
# Rattus norvegicus [6] = assay: Percent reduction of SHR (Spontaneous Hypertensive Rat) blood pressure at 4.5 hr at a dose 10 mg/kg peroral administration; format: functional; details: route oral
# Rattus norvegicus [7] = assay: Percent reduction of SHR (Spontaneous Hypertensive Rat) blood pressure at 1 hr at a dose 10 mg/kg peroral administration; format: functional; details: route oral
# Rattus norvegicus [8] = assay: Percent reduction of SHR (Spontaneous Hypertensive Rat) blood pressure at 1 hr at a dose 3 mg/kg peroral administration; format: functional; details: route oral
# Rattus norvegicus [9] = assay: Percent reduction of SHR (Spontaneous Hypertensive Rat) blood pressure at 4.5 hr at a dose 3 mg/kg peroral administration; format: functional; details: route oral
pKa [1],Ki [2],Ki ([3]; read-out: Ki) [nM],Ki [3],SMILES,Reduction (Rattus norvegicus [4]) [%],Reduction (Rattus norvegicus [5]) [%],Reduction (Rattus norvegicus [6]) [%],Reduction (Rattus norvegicus [7]) [%],Reduction (Rattus norvegicus [8]) [%],Reduction (Rattus norvegicus [9]) [%]
8.1,> 1000 nM,4.1,,COc1cc2nc(N(C)C)nc(N)c2cc1OC,,,,,,
9.3,> 1000 nM,11.4,,COc1cc2nc(N(C)C)cc(N)c2cc1OC,12,11,,,,
,,160,,COc1cc2cc(N3CCN(C(=O)c4ccco4)CC3)nc(N)c2cc1OC,,,6,4,,
6.8,,,,COc1cc2nc(N3CCN(C(=O)c4ccco4)CC3)nc(N)c2cc1OC [PRAZOSIN],,,,,24,15
,>> 1 uM,,>> 1 uM,COc1cc2cc(N3CCCCC3)nc(N)c2cc1OC,,,11,15,,
7.1,>> 1 uM,,>> 1 uM,COc1cc2cc(N(C)C)nc(N)c2cc1OC,,,10,12,,
